Converted amounts (≈) assume the structure as drawn.
Tests used:
[1] = tested on: rat primary pancreatic cells; test: Toxicity against rat primary pancreatic cells (MTT); details: for live cells with respect to the non-treated control (means ± S.E.M.): rat, 7 h, pH 7.4
Protocol: The toxicity of the compounds against rat primary pancreatic cells was evaluated by the MTT protocol (Table 2). […] Sodium taurocholate (NaTc) was also used at high concentrations as a model of acute pancreatitis in vitro.
Rat primary pancreatic cells were isolated as previously described. Afterwards, pancreatic cells were resuspended in Na-HEPES solution (pH 7.4) containing 14 mM glucose, 1% essential amino acid mixture, 1% (w/v) BSA, 0.01% (w/v) STI, 0.5 mM CaCl2 and incubated (5% CO2, at 37 °C) for 7 h in the absence (non-treated control) or the presence of compounds at different concentrations. After the treatment, cells were incubated (5% CO2, at 37 °C) with 0.5 mg/mL MTT for 2 h and the formazan crystals were solubilized with DMSO (v/v). The optical density was read at 570 nm with a reference wavelength of 630 nm. Non-treated cell viability was set as 100%.

[2] = tested on: HeLa, HT-29 and MCF-7 human tumor cell lines; test: Antiproliferative activity over the three human tumor cell lines (MTT); assay type: cell-based; details: Homo sapiens, range over the cell lines, Table S1; read-out: Cytotoxicity range (range of antiproliferative IC50 values)
[3] = Aqueous solubility determination (shake flask, UV); assay type: physicochemical; details: phosphate buffer, pH 7, aqueous buffer, thermodynamic from solid, phosphate buffer pH 7.0, 48 h stirring, filtered, UV; read-out: Solub.
Protocol: One of the expected effects of introducing nitrogen substitutions on combretastatin and isocombretastatin analogues, is an increase in aqueous solubility. Solubility was spectrophotometrically determined in phosphate buffer at pH 7. UV absorbance of soluble compounds was measured after shaking and microfiltration. […] In addition, aqueous solubilities of the corresponding ammonium salts are over 1 mg/mL.
This great improvement is probably due to the symmetry reduction, combined with an increased polarity for 2g.
Compounds were stirred in a solution of phosphate buffer at pH 7.0 (1–2 mg of compound in 300 µL of buffer) during 48 h. After that, the samples were filtered over a […] filter to discard the insoluble residues. In order to determine the maximum wavelength of absorbance for each compound, a scan between 270 and 400 nm was performed. Once the wavelength was selected, a calibration line was performed and the concentration of the stirred and filtered samples was measured.

[4] = tested on: Bovine brain microtubule protein (MTP); test: Tubulin polymerization inhibition assay (turbidimetry); assay type: biochemical; details: 1.5 mg/mL MTP; IC50 calculated only if more than 50% inhibition at 20 µM; read-out: TPI IC50

Row | solubility at 48 h [3] [µg/mL] | IC50 [4] [µM] | SMILES | toxicity against primary pancreatic cultured cells [1] | live cells with respect to the non-treated control (means ± S.E.M.) ([1]; 0.25 µM) [%] | live cells with respect to the non-treated control (means ± S.E.M.) ([1]; 0.5 µM) [%] | IC50 [2] [nM]
1 | 11 (≈ 34.9 µM) | > 20 | COc1cc(C(=O)c2cccc(N(C)C)c2)cc(OC)c1OC [Compound 1f, (3-(Dimethylamino)phenyl)(3,4,5-trimethoxyphenyl)methanone] | very low toxicity | 106.59 ± 17.60 | 95.97 ± 10.55 | 180 to 460
2 | 13.5 (≈ 42.9 µM) | 35.9 | C=C(c1ccc(N(C)C)nc1)c1cc(OC)c(OC)c(OC)c1 [Compound 3b, N,N-Dimethyl-5-(1-(3,4,5-trimethoxyphenyl)vinyl)pyridin-2-amine] | very low toxicity | 112.81 ± 19.30 | 94.06 ± 13.13 | 81 to 277
3 | 44 (≈ 140 µM) | 5.1 | COc1cc(C=Cc2ccc(N(C)C)nc2)cc(OC)c1OC [Compound 8b, N,N-dimethyl-5-(3,4,5-trimethoxystyryl)pyridin-2-amine] | very low toxicity | 94.31 ± 11.83 | 91.65 ± 13.88 | 57 to 80
4 | 20 (≈ 58.4 µM) | 9.1 | COc1cc(C(=O)c2ccnc(N3CCCC3)c2)cc(OC)c1OC [Compound 1h, (2-(Pyrrolidin-1-yl)pyridin-4-yl)(3,4,5-trimethoxyphenyl)methanone] | very low toxicity | 103.84 ± 9.20 | 102.59 ± 14.73 | 17 to 71

Source: paper PMC6930638, “The Masked Polar Group Incorporation (MPGI) Strategy in Drug Design: Effects of Nitrogen Substitutions on Combretastatin and Isocombretastatin Tubulin Inhibitors” (Molecules, 2019)
